{"source": "paper PMC8473062", "about": "“Stability and Safety of Inhibitor Cystine Knot Peptide, GTx1-15, from the Tarantula Spider Grammostola rosea” (Toxins, 2021)", "key": {"[1]": {"test": "Protein thermal shift assay", "type": "physicochemical", "details": "Protein Thermal Shift kit, heated 25 to 99 °C at 1 °C/min", "procedure": "The protein thermal shift assay was conducted with the StepOne Real-Time PCR System (Thermo Fisher Scientific) using the Protein Thermal Shift Assay Kit according to the manufacturer’s instructions with Protein Thermal Shift Software version 1. The protein melt reaction mix was added to the wells of a 48-well PCR plate. The plate was heated from 25 to 99 °C with a heating rate of 1 °C/min. The software allows the user to calculate a melting temperature (Tm) from their melt curve data using the Boltzmann equation (Tm B)."}, "[2]": {"details": "cited from earlier work", "procedure": "We previously reported that ProTxII (an ICK peptide) remains in circulation for over 4 h. Similar to those results, GTx1-15 retains an effective concentration in circulation for over several hours."}, "[3]": {"details": "cited from earlier work; for degradation after thermal incubation: 24 h", "procedure": "Cyclotides are cystine-knotted peptides in which the N- and C-termini are cyclized. Kalata B1 is a well-known cyclotide that consists of 29 amino acids and is not degraded after heating to temperatures approaching boiling. The insecticidal spider toxin ω-hexatoxin-Hv1a is an ICK peptide whose thermal stability has been investigated. After incubating it for 24 h at 50 °C, 75 °C or 95 °C, ω-hexatoxin-Hv1a is degraded about 20%, 30% and 90%, respectively. In contrast, GTx1-15 degraded only 30% after a 24-h incubation at 95 °C."}, "THP-1 cells": {"test_system": "THP-1 cells", "test": "Antigenicity assay (CD80, CD86, CD54 expression by real-time PCR)", "details": "positive control 4 μg/mL, 24 h exposure, RT-PCR, one range for the three genes", "procedure": "THP-1 cells were cultured as described above. For antigenicity assays, 2.4 × 10^6 THP-1 cells were inoculated into single wells of a 12-well plate with 1.2 mL RPMI-1640 medium. […] As a negative control, RPMI-1640 was added. After a 24-h incubation, THP-1 cells were collected via centrifugation at 1000× g for 5 min, and then total RNA was extracted from cells using an RNeasy Mini Kit (QIAGEN, Hilden, Germany) according to the manufacturer’s instructions. Total RNA was treated with DNase (QIAGEN) for 10 min to digest contaminating genomic DNA and purified by an RNeasy MinElute Cleanup Kit (QIAGEN). Complementary DNA was synthesized with PrimeScript Reverse Transcriptase (Takara Bio) with an oligo (dT)12-18 primer (Invitrogen, Waltham, USA), 10 mM each dNTP mixture (Promega, Madison, USA), and RNase Inhibitor (Takara Bio). Real-time PCR mixtures were prepared with SYBR Premix Ex Taq (Takara Bio) according to the manufacturer’s instructions. […] Primers for real-time PCR were designed using Roche ProbeFinder version 2.45 (http://qpcr.probefinder.com/roche3.html. This site is stopped at the end of 2020)."}}, "note": "Like-named read-outs stand apart in the source and are kept apart here."}
{"compound": "GsMTx4", "values": [{"measurement": "Tm B (Boltzmann melting temperature)", "setting": "[1]", "result": "95.26 ± 0.10", "unit": "°C"}]}
{"compound": "ProTxII: ICK peptide compared in the protein thermal shift assay", "values": [{"measurement": "Tm B (Boltzmann melting temperature)", "setting": "[1]", "result": "93.95 ± 0.12", "unit": "°C"}, {"measurement": "time remaining in circulation", "setting": "[2]", "result": "over 4 h"}]}
{"compound": "Kalata B1: well-known cyclotide of 29 amino acids; cystine-knotted peptide with N- and C-termini cyclized (cyclo(GLPVCGETCVGGTCNTPGCTCSWPVCTRN); disulfide (positions not given here); also: cystine-knotted (disulfide places not given here); UniProt P56254 89-117, looked up)", "values": [{"measurement": "degradation after heating", "setting": "[3]; heating to temperatures approaching boiling", "result": "not degraded"}]}
{"compound": "O=[N+]([O-])c1ccc(Cl)c([N+](=O)[O-])c1", "note": "[DNCB, 2,4-Dinitrochlorobenzene]", "values": [{"measurement": "increase in expression of CD80, CD86 and CD54 genes", "setting": "THP-1 cells", "result": "20–70 times"}]}
{"compound": "ω-hexatoxin-Hv1a", "values": [{"measurement": "degradation after thermal incubation", "setting": "[3]; 50 °C", "result": "about 20%"}, {"measurement": "degradation after thermal incubation", "setting": "[3]; 75 °C", "result": "~30", "unit": "%"}, {"measurement": "degradation after thermal incubation", "setting": "[3]; 95 °C", "result": "~90", "unit": "%"}]}
{"compound": "ProTxI: ICK peptide compared in the protein thermal shift assay (ECRYWLGGCSAGQTCCKHLVCSRRHGWCVWDGTFS; UniProt P83480 1-35, looked up)", "values": [{"measurement": "Tm B (Boltzmann melting temperature)", "setting": "[1]", "result": "93.23 ± 0.12", "unit": "°C"}]}
